Laboratory results as given in the supplement of paper PMC11208160.

Assay: recombinant UMI read abundance after kanamycin selection (control-corrected) (log10(CPM+1)); higher = more efficient recombination; extreme values may be limits of the assay; sequences stand for … in AGTGCAGAGAAAATCGGCCAGTTTTCTCTGCCTGCAGTCCGCATGCCGTGGGACCCCTTGGGTTCTAACCTGTTGCCTAGATTTATGCAGCGGACTGCCTTTCTCCCAAAGTGATAAACCGG…AGGTTGGTTTCACT; site = the 11-nt donor
How it was run: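 In Escherichia coli, a pool of donor and donor-binding-loop pairs, each with a 12-nt UMI, was tested for the IS621 bridge recombinase. Plating was on IPTG (0.07 mM) plus kanamycin, or without selection, in two replicates. Recombinant UMIs were amplified by PCR across the donor–target junction and sequenced, and counts were reported as log10(CPM+1) after averaging and control-derived scaling.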
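Also: IS621 bridge recombinase in Escherichia coli cells against a fixed T5 target plasmid.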

| Sequence | recombinant UMI read abundance (log10) |
| --- | --- |
| CACGGCCCATGGACCGGTTTTCCCGGTAATCCGTATTTGTA (site CACGGCCCTTA) | 0.29 |
| CACGGGCCATGGACCGGTTTTCCCGGTAATCCGTATTTGTT (site CACGGACCTAA) | 0 |
| CACGGGCCATGGACCGGTTTTCCCGGTAATCCGTATTTGTT (site CACGGCCCTAA) | 0.234 |
| CACGGGCCATGGACCGGTTTTCCCGGTAATCCGTATTTGTT (site CACGGGCCTAA) | 0.574 |
| CACGGGCCATGGACCGGTTTTCCCGGTAATCCGTATTTGTT (site CACGGTCCTAA) | 0.00819 |
| CACGGGTCATGGACCGGTTTTCCCGGTAATCCGTATTTGCT (site CACGGGTCTAG) | 2.17 |
| CACGGTCCATGGACCGGTTTTCCCGGTAATCCGTATTTGAT (site CACGGTCCTAT) | 0.938 |
| CACGGTTCATGGACCGGTTTTCCCGGTAATCCGTATTTGGG (site CACGGTTCTCC) | 1.03 |
| CACGTACCATGGACCGGTTTTCCCGGTAATCCGTATTTGCA (site CACGTACCTTG) | 0 |
| CACTACTCATGGACCGGTTTTCCCGGTAATCCGTATTTGTT (site CACTACTCTAA) | 2.71 |
| CACTAGGCATGGACCGGTTTTCCCGGTAATCCGTATTTGTA (site CACTAGGCTTA) | 1.42 |
| CACTATGCATGGACCGGTTTTCCCGGTAATCCGTATTTGAT (site CACTATGCTAT) | 1.93 |
| CACTCAGCATGGACCGGTTTTCCCGGTAATCCGTATTTGCC (site CACTCAGCTGG) | 2.5 |
| CACTCCACATGGACCGGTTTTCCCGGTAATCCGTATTTGCG (site CACTCCACTCG) | 1.09 |
| CACTCGGCATGGACCGGTTTTCCCGGTAATCCGTATTTGGA (site CACTAGGCTTC) | 0.232 |
| CACTCGGCATGGACCGGTTTTCCCGGTAATCCGTATTTGGA (site CACTCGGCTTC) | 1.09 |
| CACTCGGCATGGACCGGTTTTCCCGGTAATCCGTATTTGGA (site CACTGGGCTTC) | 0.201 |
| CACTCGGCATGGACCGGTTTTCCCGGTAATCCGTATTTGGA (site CACTTGGCTTC) | 0.0193 |
| CACTCTTCATGGACCGGTTTTCCCGGTAATCCGTATTTGCC (site CACTCATCTGG) | 1.6 |
| CACTCTTCATGGACCGGTTTTCCCGGTAATCCGTATTTGCC (site CACTCCTCTGG) | 2.13 |
| CACTCTTCATGGACCGGTTTTCCCGGTAATCCGTATTTGCC (site CACTCGTCTGG) | 0 |
| CACTCTTCATGGACCGGTTTTCCCGGTAATCCGTATTTGCC (site CACTCTTCTGG) | 2.07 |
| CACTGTACATGGACCGGTTTTCCCGGTAATCCGTATTTGCG (site CACTGTACTCG) | 1.83 |

| Sequence | recombinant UMI read abundance (log10) |
| --- | --- |
| CACTTAGCATGGACCGGTTTTCCCGGTAATCCGTATTTGGA (site CACTTAGCTTC) | 1.16 |
| CACTTAGCATGGACCGGTTTTCCCGGTAATCCGTATTTGGA (site CACTTCGCTTC) | 0.00475 |
| CACTTAGCATGGACCGGTTTTCCCGGTAATCCGTATTTGGA (site CACTTGGCTTC) | 0.0129 |
| CACTTAGCATGGACCGGTTTTCCCGGTAATCCGTATTTGGA (site CACTTTGCTTC) | 0 |
| CACTTGCCATGGACCGGTTTTCCCGGTAATCCGTATTTGGA (site CACTTGACTTC) | 0.0268 |
| CACTTGCCATGGACCGGTTTTCCCGGTAATCCGTATTTGGA (site CACTTGCCTTC) | 0.021 |
| CACTTGCCATGGACCGGTTTTCCCGGTAATCCGTATTTGGA (site CACTTGGCTTC) | 0.0247 |
| CACTTGCCATGGACCGGTTTTCCCGGTAATCCGTATTTGGA (site CACTTGTCTTC) | 0.137 |
| CACTTGGCATGGACCGGTTTTCCCGGTAATCCGTATTTGGA (site AACTTGGCTTC) | 0.00381 |
| CACTTGGCATGGACCGGTTTTCCCGGTAATCCGTATTTGGA (site CAATTGGCTTC) | 0.432 |
| CACTTGGCATGGACCGGTTTTCCCGGTAATCCGTATTTGGA (site CACATGGCTTC) | 0.0226 |
| CACTTGGCATGGACCGGTTTTCCCGGTAATCCGTATTTGGA (site CACCTGGCTTC) | 0.612 |
| CACTTGGCATGGACCGGTTTTCCCGGTAATCCGTATTTGGA (site CACGTGGCTTC) | 0.024 |
| CACTTGGCATGGACCGGTTTTCCCGGTAATCCGTATTTGGA (site CACTAGGCTTC) | 0.104 |
| CACTTGGCATGGACCGGTTTTCCCGGTAATCCGTATTTGGA (site CACTCGGCTTC) | 0.0123 |
| CACTTGGCATGGACCGGTTTTCCCGGTAATCCGTATTTGGA (site CACTGGGCTTC) | 0.0362 |
| CACTTGGCATGGACCGGTTTTCCCGGTAATCCGTATTTGGA (site CACTTAGCTTC) | 1.14 |
| CACTTGGCATGGACCGGTTTTCCCGGTAATCCGTATTTGGA (site CACTTCGCTTC) | 0.0367 |
| CACTTGGCATGGACCGGTTTTCCCGGTAATCCGTATTTGGA (site CACTTGACTTC) | 0.231 |
| CACTTGGCATGGACCGGTTTTCCCGGTAATCCGTATTTGGA (site CACTTGCCTTC) | 0.407 |
| CACTTGGCATGGACCGGTTTTCCCGGTAATCCGTATTTGGA (site CACTTGGCTAC) | 0.013 |
| CACTTGGCATGGACCGGTTTTCCCGGTAATCCGTATTTGGA (site CACTTGGCTCC) | 0.381 |
| CACTTGGCATGGACCGGTTTTCCCGGTAATCCGTATTTGGA (site CACTTGGCTGC) | 0.96 |

| Sequence | recombinant UMI read abundance (log10) |
| --- | --- |
| CACTTGGCATGGACCGGTTTTCCCGGTAATCCGTATTTGGA (site CACTTGGCTTA) | 1.12 |
| CACTTGGCATGGACCGGTTTTCCCGGTAATCCGTATTTGGA (site CACTTGGCTTC) | 0.91 |
| CACTTGGCATGGACCGGTTTTCCCGGTAATCCGTATTTGGA (site CACTTGGCTTG) | 0.926 |
| CACTTGGCATGGACCGGTTTTCCCGGTAATCCGTATTTGGA (site CACTTGGCTTT) | 1.77 |
| CACTTGGCATGGACCGGTTTTCCCGGTAATCCGTATTTGGA (site CACTTGTCTTC) | 0.78 |
| CACTTGGCATGGACCGGTTTTCCCGGTAATCCGTATTTGGA (site CACTTTGCTTC) | 0.00347 |
| CACTTGGCATGGACCGGTTTTCCCGGTAATCCGTATTTGGA (site CAGTTGGCTTC) | 0.28 |
| CACTTGGCATGGACCGGTTTTCCCGGTAATCCGTATTTGGA (site CATTTGGCTTC) | 0.342 |
| CACTTGGCATGGACCGGTTTTCCCGGTAATCCGTATTTGGA (site CCCTTGGCTTC) | 0.304 |
| CACTTGGCATGGACCGGTTTTCCCGGTAATCCGTATTTGGA (site CGCTTGGCTTC) | 0.439 |
| CACTTGGCATGGACCGGTTTTCCCGGTAATCCGTATTTGGA (site CTCTTGGCTTC) | 0.0309 |
| CACTTGGCATGGACCGGTTTTCCCGGTAATCCGTATTTGGA (site GACTTGGCTTC) | 0.112 |
| CACTTGGCATGGACCGGTTTTCCCGGTAATCCGTATTTGGA (site TACTTGGCTTC) | 0.275 |
| CACTTGGCATGGACCGGTTTTCCCGGTAATCCGTATTTGGC (site CACTTGGCTAC) | 0.012 |
| CACTTGGCATGGACCGGTTTTCCCGGTAATCCGTATTTGGC (site CACTTGGCTCC) | 0.0109 |
| CACTTGGCATGGACCGGTTTTCCCGGTAATCCGTATTTGGC (site CACTTGGCTGC) | 1.64 |
| CACTTGGCATGGACCGGTTTTCCCGGTAATCCGTATTTGGC (site CACTTGGCTTC) | 0.166 |
| CACTTGGCATGGACCGGTTTTCCCGGTAATCCGTATTTGGG (site CACTTGGCTAC) | 0.0307 |
| CACTTGGCATGGACCGGTTTTCCCGGTAATCCGTATTTGGG (site CACTTGGCTCC) | 0.0801 |
| CACTTGGCATGGACCGGTTTTCCCGGTAATCCGTATTTGGG (site CACTTGGCTGC) | 0 |
| CACTTGGCATGGACCGGTTTTCCCGGTAATCCGTATTTGGG (site CACTTGGCTTC) | 0.0398 |
| CACTTGTCATGGACCGGTTTTCCCGGTAATCCGTATTTGGA (site CACTTGACTTC) | 0.0147 |
